Laboratory results published in US10168342B2, “Lipid probes and uses thereof” (THE SCRIPPS RESEARCH INSTITUTE, priority 2015, dated 2019).
Like-named read-outs stand apart in the source and are kept apart here.

Assays:
[1] = target: AEA-DA lipid probe targets in Neuro2a cells (Mus musculus, UniProt P62814)
[2] = target: T1, AEA-DA lipid probe targets in Neuro2a cells (Mus musculus, UniProt P01897)
T1 sequence (P01897 25-362): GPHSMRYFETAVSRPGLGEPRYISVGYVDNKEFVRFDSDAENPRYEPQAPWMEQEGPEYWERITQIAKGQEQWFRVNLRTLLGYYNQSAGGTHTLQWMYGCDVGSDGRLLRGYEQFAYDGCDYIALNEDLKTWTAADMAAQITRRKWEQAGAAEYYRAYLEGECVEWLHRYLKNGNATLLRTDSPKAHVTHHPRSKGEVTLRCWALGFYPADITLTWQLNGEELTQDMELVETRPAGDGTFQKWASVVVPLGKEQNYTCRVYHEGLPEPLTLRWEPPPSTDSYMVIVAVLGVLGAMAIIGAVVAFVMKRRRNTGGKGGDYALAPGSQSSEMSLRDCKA

[3] = target: T2, AEA-DA lipid probe targets in Neuro2a cells (Mus musculus, UniProt Q80UU9); details: for SILAC ratio, PGRMC2 (Q80UU9): Neuro2a cells, AEA-DA probe
T2 sequence (Q80UU9 1-217): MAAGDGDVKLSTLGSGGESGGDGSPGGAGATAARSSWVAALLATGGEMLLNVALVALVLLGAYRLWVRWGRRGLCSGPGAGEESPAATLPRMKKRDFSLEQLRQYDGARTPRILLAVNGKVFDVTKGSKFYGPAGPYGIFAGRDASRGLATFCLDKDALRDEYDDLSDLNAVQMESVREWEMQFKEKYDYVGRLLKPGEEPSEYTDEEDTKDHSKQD

[4] = target: T3, AEA-DA lipid probe targets in Neuro2a cells (Mus musculus, UniProt P81117)
T3 sequence (P81117 25-420): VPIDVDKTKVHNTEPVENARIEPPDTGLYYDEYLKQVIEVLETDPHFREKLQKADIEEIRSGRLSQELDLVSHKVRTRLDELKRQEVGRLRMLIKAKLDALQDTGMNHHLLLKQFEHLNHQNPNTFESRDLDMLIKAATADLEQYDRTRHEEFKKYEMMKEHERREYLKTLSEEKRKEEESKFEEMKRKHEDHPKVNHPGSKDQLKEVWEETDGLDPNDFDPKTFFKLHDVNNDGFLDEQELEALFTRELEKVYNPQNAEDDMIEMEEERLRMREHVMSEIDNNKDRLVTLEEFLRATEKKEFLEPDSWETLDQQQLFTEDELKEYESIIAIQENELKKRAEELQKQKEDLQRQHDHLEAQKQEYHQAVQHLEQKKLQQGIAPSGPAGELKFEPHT

[5] = target: T4, AEA-DA lipid probe targets in Neuro2a cells (Mus musculus, UniProt Q99JY4); details: for SILAC ratio, TRABD (Q99JY4): Neuro2a cells, AEA-DA probe
T4 sequence (Q99JY4 1-376): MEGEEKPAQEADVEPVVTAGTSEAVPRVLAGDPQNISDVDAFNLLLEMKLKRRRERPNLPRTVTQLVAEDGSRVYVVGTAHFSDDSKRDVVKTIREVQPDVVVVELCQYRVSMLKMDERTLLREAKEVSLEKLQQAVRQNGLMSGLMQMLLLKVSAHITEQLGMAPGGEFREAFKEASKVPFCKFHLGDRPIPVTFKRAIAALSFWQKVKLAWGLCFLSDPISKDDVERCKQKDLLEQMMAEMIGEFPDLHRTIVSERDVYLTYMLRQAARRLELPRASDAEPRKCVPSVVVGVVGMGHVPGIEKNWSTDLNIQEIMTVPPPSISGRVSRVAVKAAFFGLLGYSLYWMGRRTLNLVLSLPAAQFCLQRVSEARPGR

[6] = target: T5, AEA-DA lipid probe targets in Neuro2a cells (Mus musculus, UniProt Q99LR1)
T5 sequence (Q99LR1 1-398): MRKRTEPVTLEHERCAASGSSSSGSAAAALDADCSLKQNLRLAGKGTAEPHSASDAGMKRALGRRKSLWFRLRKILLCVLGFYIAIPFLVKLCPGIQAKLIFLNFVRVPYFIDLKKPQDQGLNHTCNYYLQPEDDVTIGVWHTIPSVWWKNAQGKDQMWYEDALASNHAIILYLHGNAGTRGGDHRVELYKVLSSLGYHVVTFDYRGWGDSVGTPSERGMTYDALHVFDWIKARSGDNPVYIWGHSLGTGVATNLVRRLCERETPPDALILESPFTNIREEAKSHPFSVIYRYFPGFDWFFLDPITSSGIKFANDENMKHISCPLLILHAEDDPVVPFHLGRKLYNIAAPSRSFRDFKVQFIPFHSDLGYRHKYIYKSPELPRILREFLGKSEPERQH

[7] = target: AEA-DA lipid probe targets in Neuro2a cells (Mus musculus, UniProt Q61584)
[8] = target: T6, AEA-DA lipid probe targets in Neuro2a cells (Mus musculus, UniProt Q8C7K6)
T6 sequence (Q8C7K6 23-495): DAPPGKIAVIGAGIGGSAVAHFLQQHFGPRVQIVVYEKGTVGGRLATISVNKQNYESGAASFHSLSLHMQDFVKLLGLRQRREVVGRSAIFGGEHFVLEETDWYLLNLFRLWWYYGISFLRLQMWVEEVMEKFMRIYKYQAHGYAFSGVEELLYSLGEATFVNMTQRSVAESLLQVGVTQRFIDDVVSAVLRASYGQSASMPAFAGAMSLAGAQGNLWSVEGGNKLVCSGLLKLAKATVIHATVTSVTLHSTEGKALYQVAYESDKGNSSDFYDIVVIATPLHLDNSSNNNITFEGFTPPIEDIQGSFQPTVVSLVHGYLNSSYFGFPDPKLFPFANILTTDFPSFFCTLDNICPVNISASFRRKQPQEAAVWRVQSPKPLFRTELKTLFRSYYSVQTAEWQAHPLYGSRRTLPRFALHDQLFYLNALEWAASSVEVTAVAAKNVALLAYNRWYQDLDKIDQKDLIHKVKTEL

Sequence of AEA-DA lipid probe targets in Neuro2a cells (Mus musculus, UniProt Q61584) (Q61584 whole entry): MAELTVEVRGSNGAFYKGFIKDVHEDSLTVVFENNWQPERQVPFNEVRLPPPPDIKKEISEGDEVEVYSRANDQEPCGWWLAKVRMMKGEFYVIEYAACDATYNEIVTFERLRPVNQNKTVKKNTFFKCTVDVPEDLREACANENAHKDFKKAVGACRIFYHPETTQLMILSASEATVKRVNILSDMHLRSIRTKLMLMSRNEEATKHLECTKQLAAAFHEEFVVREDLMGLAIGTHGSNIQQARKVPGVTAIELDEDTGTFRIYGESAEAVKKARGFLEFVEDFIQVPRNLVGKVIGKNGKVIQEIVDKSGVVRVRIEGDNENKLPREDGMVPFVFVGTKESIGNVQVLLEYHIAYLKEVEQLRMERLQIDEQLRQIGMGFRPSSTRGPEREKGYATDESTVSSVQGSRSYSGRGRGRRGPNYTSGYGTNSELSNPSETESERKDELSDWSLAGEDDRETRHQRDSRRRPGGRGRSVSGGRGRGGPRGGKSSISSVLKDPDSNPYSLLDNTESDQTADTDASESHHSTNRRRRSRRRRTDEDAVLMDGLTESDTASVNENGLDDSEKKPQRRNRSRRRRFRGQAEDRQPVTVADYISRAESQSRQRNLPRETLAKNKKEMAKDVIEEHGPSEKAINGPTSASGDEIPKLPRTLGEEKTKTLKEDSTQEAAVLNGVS
Sequence of AEA-DA lipid probe targets in Neuro2a cells (Mus musculus, UniProt P62814) (P62814 whole entry): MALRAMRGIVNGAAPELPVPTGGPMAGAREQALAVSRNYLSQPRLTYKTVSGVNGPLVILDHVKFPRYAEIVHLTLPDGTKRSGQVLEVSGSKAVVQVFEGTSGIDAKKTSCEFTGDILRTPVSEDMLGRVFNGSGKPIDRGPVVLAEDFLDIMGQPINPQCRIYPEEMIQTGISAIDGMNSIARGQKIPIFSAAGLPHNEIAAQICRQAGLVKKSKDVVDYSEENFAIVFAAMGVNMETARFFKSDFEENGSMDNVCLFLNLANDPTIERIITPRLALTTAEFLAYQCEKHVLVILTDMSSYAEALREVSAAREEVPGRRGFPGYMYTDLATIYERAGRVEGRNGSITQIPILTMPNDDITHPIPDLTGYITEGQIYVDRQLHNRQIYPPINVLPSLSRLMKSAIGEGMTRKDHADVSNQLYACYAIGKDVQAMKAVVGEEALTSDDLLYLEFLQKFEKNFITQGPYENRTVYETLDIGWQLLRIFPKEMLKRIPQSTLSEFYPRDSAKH

`CCCCC/C=C\C/C=C\C/C=C\C/C=C\CCCC(=O)NCCO` [AEA, anandamide, reference compound] was tested, and the “SILAC ratio Atp6v1b2” value ([1]; competitor 200 μM) was 1.1, the “SILAC ratio H2-L” value ([2]; competitor 200 μM) was 1.3 and the “SILAC ratio, PGRMC2 (Q80UU9)” value ([3]; competitor 200 μM) was 2.0. The “SILAC ratio, Pgrmc2” value ([3]; competitor 200 μM) was 2.0, the “SILAC ratio, Nucb2” value ([4]; competitor 200 μM) was 1.5 and the “SILAC ratio, TRABD (Q99JY4)” value ([5]; competitor 200 μM) was 1.0. The “SILAC ratio, Trabd” value ([5]; competitor 200 μM) was 1.0, the “SILAC ratio, Abhd12” value ([6]; competitor 200 μM) was 1.8 and the “SILAC ratio Fxr1” value ([7]; competitor 200 μM) was 1.1. For the same molecule, the “SILAC ratio Pcyox11” value ([8]; competitor 200 μM) was 1.5.
`O=C(/C=C/c1cccnc1)NCCCCC1CCN(C(=O)c2ccccc2)CC1` [FK-866, reference compound] was tested, and the “SILAC ratio Atp6v1b2” value ([1]; competitor 25 μM) was 1.6, the “SILAC ratio H2-L” value ([2]; competitor 25 μM) was 1.0 and the “SILAC ratio, PGRMC2 (Q80UU9)” value ([3]; competitor 25 μM) was 1.2. For the same molecule, the “SILAC ratio, Pgrmc2” value ([3]; competitor 25 μM) was 1.2, the “SILAC ratio, Nucb2” value ([4]; competitor 25 μM) was 1.1 and the “SILAC ratio, TRABD (Q99JY4)” value ([5]; competitor 25 μM) was 1.2. The “SILAC ratio, Trabd” value ([5]; competitor 25 μM) was 1.2, the “SILAC ratio, Abhd12” value ([6]; competitor 25 μM) was 1.0 and the “SILAC ratio Fxr1” value ([7]; competitor 25 μM) was 1.4. The “SILAC ratio Pcyox11” value ([8]; competitor 25 μM) was 1.3.
With `CN1CCN(C(=O)c2c(-c3ccccc3)c3cc([N+](=O)[O-])ccc3n2C)CC1` [KML110, (1-Methyl-5-nitro-3-phenyl-1H-indol-2-yl)(4-methylpiperazin-1-yl)methanone] the “SILAC ratio Atp6v1b2” value ([1]; competitor 25 μM) was 1.2, the “SILAC ratio H2-L” value ([2]; competitor 25 μM) was 1.7 and the “SILAC ratio, Pgrmc2” value ([3]; competitor 25 μM) was 1.6. For the same molecule, the “SILAC ratio, Nucb2” value ([4]; competitor 25 μM) was 2.0, the “SILAC ratio, Trabd” value ([5]; competitor 25 μM) was 1.5 and the “SILAC ratio, Abhd12” value ([6]; competitor 25 μM) was 1.2. For the same molecule, the “SILAC ratio Fxr1” value ([7]; competitor 25 μM) was 1.5 and the “SILAC ratio Pcyox11” value ([8]; competitor 25 μM) was 2.0.
In the case of `CN1CCN(C(=O)c2[nH]c3ccc([N+](=O)[O-])cc3c2-c2ccccc2)CC1` [MJN228, (4-Methylpiperazin-1-yl)(5-nitro-3-phenyl-1H-indol-2-yl)methanone], the “SILAC ratio Atp6v1b2” value ([1]; competitor 10 μM) is reported as 1.2, the “SILAC ratio Atp6v1b2” value ([1]; competitor 25 μM) is reported as 1.1 and the “SILAC ratio Atp6v1b2” value ([1]; competitor 50 μM) is reported as 0.9. The “SILAC ratio H2-L” value ([2]; competitor 10 μM) was 1.0, the “SILAC ratio H2-L” value ([2]; competitor 25 μM) was 1.1 and the “SILAC ratio H2-L” value ([2]; competitor 50 μM) was 1.1. For the same molecule, the “SILAC ratio H2-L” value ([2]; competitor 100 μM) was 1.0, the “SILAC ratio, PGRMC2 (Q80UU9)” value ([3]; competitor 25 μM) was 1.5 and the “SILAC ratio, Pgrmc2” value ([3]; competitor 10 μM) was 1.2. For the same molecule, the “SILAC ratio, Pgrmc2” value ([3]; competitor 25 μM) was 1.5, the “SILAC ratio, Pgrmc2” value ([3]; competitor 50 μM) was 1.7 and the “SILAC ratio, Pgrmc2” value ([3]; competitor 100 μM) was 2.0. For the same molecule, the “SILAC ratio, Nucb2” value ([4]; competitor 10 μM) was 1.4, the “SILAC ratio, Nucb2” value ([4]; competitor 25 μM) was 1.6 and the “SILAC ratio, Nucb2” value ([4]; competitor 50 μM) was 2.1. For the same molecule, the “SILAC ratio, Nucb2” value ([4]; competitor 100 μM) was 2.9, the “SILAC ratio, TRABD (Q99JY4)” value ([5]; competitor 25 μM) was 1.3 and the “SILAC ratio, Trabd” value ([5]; competitor 10 μM) was 1.1. The “SILAC ratio, Trabd” value ([5]; competitor 25 μM) was 1.3, the “SILAC ratio, Trabd” value ([5]; competitor 50 μM) was 1.4 and the “SILAC ratio, Trabd” value ([5]; competitor 100 μM) was 1.7. The “SILAC ratio, Abhd12” value ([6]; competitor 10 μM) was 1.2, the “SILAC ratio, Abhd12” value ([6]; competitor 25 μM) was 1.2 and the “SILAC ratio, Abhd12” value ([6]; competitor 50 μM) was 1.2. For the same molecule, the “SILAC ratio, Abhd12” value ([6]; competitor 100 μM) was 1.4, the “SILAC ratio Fxr1” value ([7]; competitor 10 μM) was 1.2 and the “SILAC ratio Fxr1” value ([7]; competitor 25 μM) was 1.3. The “SILAC ratio Fxr1” value ([7]; competitor 50 μM) was 1.1, the “SILAC ratio Fxr1” value ([7]; competitor 100 μM) was 1.1 and the “SILAC ratio Pcyox11” value ([8]; competitor 10 μM) was 1.2. For the same molecule, the “SILAC ratio Pcyox11” value ([8]; competitor 25 μM) was 1.8, the “SILAC ratio Pcyox11” value ([8]; competitor 50 μM) was 1.7 and the “SILAC ratio Pcyox11” value ([8]; competitor 100 μM) was 2.5.
For `C=CCN(C)CCCCCCOc1ccc(C(=O)c2ccc(Br)cc2)c(F)c1` [Ro 48-8071, reference compound], the “SILAC ratio Atp6v1b2” value ([1]; competitor 25 μM) was 0.6, the “SILAC ratio H2-L” value ([2]; competitor 25 μM) was 0.8 and the “SILAC ratio, PGRMC2 (Q80UU9)” value ([3]; competitor 25 μM) was 1.3. The “SILAC ratio, Pgrmc2” value ([3]; competitor 25 μM) was 1.3, the “SILAC ratio, Nucb2” value ([4]; competitor 25 μM) was 0.8 and the “SILAC ratio, TRABD (Q99JY4)” value ([5]; competitor 25 μM) was 1.0. The “SILAC ratio, Trabd” value ([5]; competitor 25 μM) was 1.0, the “SILAC ratio, Abhd12” value ([6]; competitor 25 μM) was 1.0 and the “SILAC ratio Fxr1” value ([7]; competitor 25 μM) was 0.9. The “SILAC ratio Pcyox11” value ([8]; competitor 25 μM) was 1.0.
